Reference: US20250352550A1, “SUBSTITUTED FUROPYRIDINES FOR THERAPEUTIC USE” (MASARYKOVA UNIVERZITA, priority 2022, published 2025)

What was measured:
DDR1 = target: T1, DDR1 (Homo sapiens, UniProt Q08345); experiment: HotSpot radiometric kinase assay (Reaction Biology), DDR1; assay type: biochemical; conditions: 200 nM kinase, substrate IRS1tide 20 μM, 33P-ATP, 120 minutes at room temperature
T1 construct: purchased Reaction Biology
Method: (§1) The compounds were profiled in the HotSpot radiometric assays (Reaction Biology).
Briefly, • 1. Substrate indicated in Table 1 was dissolved in freshly prepared reaction buffer (20 mM HEPES (pH 7.5), 10 mM MgCl2, 1 mM EGTA, 0.01% Brij35, 0.02 mg/ml BSA, 0.1 mM Na3VO4, 2 mM DTT, 1% DMSO) at the concentration indicated in Table 1. • 2. Corresponding kinase (concentration indicated in Table 1) was added and the mixture was gently mixed. • 3. Tested compound dissolved in DMSO was added into the kinase reaction mixture. • 4. ^33P-ATP (specific activity 0.01 μCi/μL final) was added into the reaction mixture to initiate the reaction. • 5. The kinase reaction was incubated for 120 minutes at room temperature. • 6. […] The radioactive phosphorylated substrate remaining on the filter paper was measured.
(§2) Kinase activity data were expressed as the percent remaining kinase activity in tested samples compared to the vehicle (DMSO) reactions. IC50 values and curve fits were obtained using Prism4 Software (GraphPad).

FLT3 = target: T2, FLT3 (Homo sapiens, UniProt P36888); experiment: HotSpot radiometric kinase assay (Reaction Biology), FLT3; assay type: biochemical; conditions: 4 nM kinase, substrate ABLtide 20 μM, 33P-ATP, 120 minutes at room temperature
T2 construct: purchased Reaction Biology
T2 sequence (P36888 27-993): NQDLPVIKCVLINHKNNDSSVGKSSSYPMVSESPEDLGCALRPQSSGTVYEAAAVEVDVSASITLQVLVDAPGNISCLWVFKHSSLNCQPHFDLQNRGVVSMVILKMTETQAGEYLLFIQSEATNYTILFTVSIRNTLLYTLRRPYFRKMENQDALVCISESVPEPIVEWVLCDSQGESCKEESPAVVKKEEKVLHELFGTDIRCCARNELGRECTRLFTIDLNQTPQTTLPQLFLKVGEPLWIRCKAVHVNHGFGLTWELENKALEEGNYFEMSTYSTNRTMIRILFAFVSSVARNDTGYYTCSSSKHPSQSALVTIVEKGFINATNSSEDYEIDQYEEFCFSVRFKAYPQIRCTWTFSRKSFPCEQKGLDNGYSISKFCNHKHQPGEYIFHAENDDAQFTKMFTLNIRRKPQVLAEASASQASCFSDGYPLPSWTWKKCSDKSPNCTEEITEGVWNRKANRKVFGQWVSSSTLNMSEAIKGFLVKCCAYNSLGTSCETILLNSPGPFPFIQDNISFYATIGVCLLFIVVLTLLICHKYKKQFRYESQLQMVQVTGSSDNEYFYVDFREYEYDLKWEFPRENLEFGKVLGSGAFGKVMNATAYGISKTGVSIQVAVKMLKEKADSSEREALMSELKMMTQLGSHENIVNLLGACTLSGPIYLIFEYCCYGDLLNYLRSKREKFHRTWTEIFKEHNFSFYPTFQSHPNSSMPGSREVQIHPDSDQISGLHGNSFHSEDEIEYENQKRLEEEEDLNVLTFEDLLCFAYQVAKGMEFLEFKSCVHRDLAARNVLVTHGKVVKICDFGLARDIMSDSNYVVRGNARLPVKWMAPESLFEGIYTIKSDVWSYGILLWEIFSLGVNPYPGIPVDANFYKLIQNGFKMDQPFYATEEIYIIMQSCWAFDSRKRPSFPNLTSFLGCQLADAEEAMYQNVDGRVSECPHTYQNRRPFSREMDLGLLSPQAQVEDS
Method: as §1
Briefly, • 1. Substrate indicated in Table 1 was dissolved in freshly prepared reaction buffer (20 mM HEPES (pH 7.5), 10 mM MgCl2, 1 mM EGTA, 0.01% Brij35, 0.02 mg/ml BSA, 0.1 mM Na3VO4, 2 mM DTT, 1% DMSO) at the concentration indicated in Table 1. • 2. Corresponding kinase (concentration indicated in Table 1) was added and the mixture was gently mixed. • 3. Tested compound dissolved in DMSO was added into the kinase reaction mixture. • 4. ^33P-ATP (specific activity 0.01 μCi/μL final) was added into the reaction mixture to initiate the reaction. • 5. The kinase reaction was incubated for 120 minutes at room temperature. • 6. Reaction mixture was spotted onto P81 ion exchange paper (Whatman K 3698-915). • 7. The filters were extensively washed with […]. • 7. The radioactive phosphorylated substrate remaining on the filter paper was measured.
as §2
Table 2 summarizes the inhibitory activities of indicated compounds tested in the in vitro kinase assays described above.

T1 sequence (Q08345 19-913): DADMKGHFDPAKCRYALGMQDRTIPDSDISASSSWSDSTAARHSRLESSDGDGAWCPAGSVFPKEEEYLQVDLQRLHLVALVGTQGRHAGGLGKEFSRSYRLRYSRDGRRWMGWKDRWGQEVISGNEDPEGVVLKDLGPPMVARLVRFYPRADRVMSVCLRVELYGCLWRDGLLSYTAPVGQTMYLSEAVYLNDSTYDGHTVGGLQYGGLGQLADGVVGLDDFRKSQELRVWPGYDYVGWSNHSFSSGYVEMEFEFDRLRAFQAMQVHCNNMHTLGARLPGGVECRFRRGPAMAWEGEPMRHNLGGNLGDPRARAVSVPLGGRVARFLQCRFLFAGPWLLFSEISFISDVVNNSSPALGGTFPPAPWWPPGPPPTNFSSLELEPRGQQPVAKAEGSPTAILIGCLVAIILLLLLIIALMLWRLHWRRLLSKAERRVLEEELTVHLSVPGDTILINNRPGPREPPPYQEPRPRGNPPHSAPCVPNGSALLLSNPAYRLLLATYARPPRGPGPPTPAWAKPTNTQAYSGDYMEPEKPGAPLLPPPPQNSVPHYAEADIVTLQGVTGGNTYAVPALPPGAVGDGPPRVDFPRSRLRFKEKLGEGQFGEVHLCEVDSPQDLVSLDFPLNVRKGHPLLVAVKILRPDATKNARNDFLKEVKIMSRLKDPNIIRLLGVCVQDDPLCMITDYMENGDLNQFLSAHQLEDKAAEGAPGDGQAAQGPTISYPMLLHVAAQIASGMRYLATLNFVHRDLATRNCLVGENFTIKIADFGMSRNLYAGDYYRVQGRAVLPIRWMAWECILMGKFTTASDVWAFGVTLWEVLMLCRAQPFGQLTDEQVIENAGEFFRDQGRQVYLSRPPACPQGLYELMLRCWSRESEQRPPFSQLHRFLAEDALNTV

Structure (SMILES) | IC50 (DDR1) [µM] | IC50 (FLT3) [µM]
CSc1cccc(-c2coc3cc(-c4ccc(N5CCN(C)CC5)cc4)cnc23)c1 [Preparative Example 147, 6-(4-(4-methylpiperazin-1-yl)phenyl)-3-(3-(methylthio)phenyl)furo[3,2-b]pyridine] | 0.236 | 0.203
CCNS(=O)(=O)Cc1cccc(-c2coc3cc(-c4ccc(N5CCN(C)CC5)cc4)cnc23)c1 [Preparative Example 141, N-ethyl-1-(3-(6-(4-(4-methylpiperazin-1-yl)phenyl)furo[3,2-b]pyridin-3-yl)phenyl)methanesulfonamide] | 0.763 | 0.805
COc1ccccc1-c1coc2cc(-c3ccc(N4CCNCC4)cc3)cnc12 [Preparative Example 17, 3-(2-methoxyphenyl)-6-(4-(piperazin-1-yl)phenyl)furo[3,2-b]pyridine] | 0.184 | 0.226
c1cc(-c2coc3cc(-c4ccc(N5CCNCC5)nc4)cnc23)ccn1 [Preparative Example 25, 6-(6-(piperazin-1-yl)pyridin-3-yl)-3-(pyridin-4-yl)furo[3,2-b]pyridine] | 0.791 | 0.049
c1cc(-c2coc3cc(-c4ccc(N5CCNCC5)cc4)cnc23)co1 [Preparative Example 57, 3-(furan-3-yl)-6-(4-(piperazin-1-yl)phenyl)furo[3,2-b]pyridine] | 0.172 | 0.022
FC(F)(F)c1cccc(-c2coc3cc(-c4ccc(N5CCNCC5)cc4)cnc23)c1 [Preparative Example 73, 6-(4-(piperazin-1-yl)phenyl)-3-(3-(trifluoromethyl)phenyl)furo[3,2-b]pyridine] | 0.966 | 0.717
O=[N+]([O-])c1cccc(-c2coc3cc(-c4ccc(N5CCNCC5)cc4)cnc23)c1 [Preparative Example 40, 3-(3-nitrophenyl)-6-(4-(piperazin-1-yl)phenyl)furo[3,2-b]pyridine] | 0.098 | 0.142
CCOC(=O)Nc1cccc(-c2coc3cc(-c4ccc(N5CCN(C)CC5)cc4)cnc23)c1 [Preparative Example 83, ethyl (3-(6-(4-(4-methylpiperazin-1-yl)phenyl)furo[3,2-b]pyridin-3-yl)phenyl)carbamate] | 0.622 | 0.099
CN1CCN(c2ccc(-c3cnc4c(-c5ccncc5)coc4c3)cc2)CC1 [Preparative Example 58, 6-(4-(4-methylpiperazin-1-yl)phenyl)-3-(pyridin-4-yl)furo[3,2-b]pyridine] | 0.364 | 0.031
NS(=O)(=O)c1cccc(-c2coc3cc(-c4ccc(N5CCNCC5)cc4)cnc23)c1 [Preparative Example 64, 3-(6-(4-(piperazin-1-yl)phenyl)furo[3,2-b]pyridin-3-yl)benzenesulfonamide] | 0.134 | 0.026
CN1CCN(c2ccc(-c3cnc4c(-c5cccc(CS(=O)(=O)N(C)C)c5)coc4c3)cc2)CC1 [Preparative Example 145, N,N-dimethyl-1-(3-(6-(4-(4-methylpiperazin-1-yl)phenyl)furo[3,2-b]pyridin-3-yl)phenyl)methane-sulfonamide] | 0.773 | 0.118
CS(=O)(=O)NCc1cccc(-c2coc3cc(-c4ccc(N5CCNCC5)cc4)cnc23)c1 [Preparative Example 125, N-(3-(6-(4-(piperazin-1-yl)phenyl)furo[3,2-b]pyridin-3-yl)benzyl)methanesulfonamide] | 0.198 | 0.021

Second part, the compound after the results:

IC50 (DDR1) [µM] | IC50 (FLT3) [µM] | Structure (SMILES)
0.284 | 0.099 | CN1CCN(c2ccc(-c3cnc4c(-c5cccc([S+](C)[O-])c5)coc4c3)cc2)CC1 (centres unmarked) [Preparative Example 181, 6-(4-(4-methylpiperazin-1-yl)phenyl)-3-(3-(methylsulfinyl)phenyl)furo[3,2-b]pyridine]
0.486 | 0.066 | COC(=O)c1cccc(-c2coc3cc(-c4ccc(N5CCN(C)CC5)cc4)cnc23)c1 [Preparative Example 237, methyl 3-{6-[4-(4-methylpiperazin-1-yl)phenyl]furo[3,2-b]pyridin-3-yl}benzoate]
0.077 | 0.022 | CONC(=O)c1cccc(-c2coc3cc(-c4ccc(N5CCN(C)CC5)cc4)cnc23)c1 [Preparative Example 238, N-methoxy-3-{6-[4-(4-methylpiperazin-1-yl)phenyl]furo[3,2-b]pyridin-3-yl}benzamide]
0.29 | 0.225 | CN1CCN(c2ccc(-c3cnc4c(-c5cccc(S(C)(=O)=O)c5)coc4c3)cc2)CC1 [Preparative Example 175, 6-(4-(4-methylpiperazin-1-yl)phenyl)-3-(3-(methylsulfonyl)phenyl)furo[3,2-b]pyridine]
0.213 | 0.101 | CN1CCN(c2ccc(-c3cnc4c(-n5ccnc5)coc4c3)cc2)CC1 [Preparative Example 231, 1-{4-[3-(1H-imidazol-1-yl)furo[3,2-b]pyridin-6-yl]phenyl}-4-methylpiperazine]
0.305 | 0.037 | CCCCOC(=O)c1cccc(-c2coc3cc(-c4ccc(N5CCNCC5)cc4)cnc23)c1 [Preparative Example 167, butyl 3-(6-(4-(piperazin-1-yl)phenyl)furo[3,2-b]pyridin-3-yl)benzoate]
0.073 | 0.024 | CCNC(=O)Cc1cccc(-c2coc3cc(-c4ccc(N5CCNCC5)cc4)cnc23)c1 [Preparative Example 152, N-ethyl-2-(3-(6-(4-(piperazin-1-yl)phenyl)furo[3,2-b]pyridin-3-yl)phenyl)acetamide]
0.141 | 0.033 | CN1CCN(c2ccc(-c3cnc4c(-c5ccccc5)coc4c3)cc2)CC1 [Preparative Example 172, 6-(4-(4-methylpiperazin-1-yl)phenyl)-3-phenylfuro[3,2-b]pyridine]
0.62 | 0.373 | CN1CCN(c2ccc(-c3cnc4c(Cc5ccccc5)coc4c3)cc2)CC1 [Preparative Example 186, 3-benzyl-6-(4-(4-methylpiperazin-1-yl)phenyl)furo[3,2-b]pyridine]
0.148 | 0.096 | Cc1oc2cc(-c3ccc(N4CCN(C)CC4)cc3)cnc2c1-c1ccccc1 [Preparative Example 196, 1-methyl-4-(4-{2-methyl-3-phenylfuro[3,2-b]pyridin-6-yl}phenyl)piperazine]
0.2 | 0.028 | CN1CCN(c2ccc(-c3cnc4c(-c5ccc(C#N)cc5)coc4c3)cc2)CC1 [Preparative Example 257, 4-(6-(4-(4-methylpiperazin-1-yl)phenyl)furo[3,2-b]pyridin-3-yl)benzonitrile]
0.07 | 0.269 | CN1CCN(c2ccc(-c3cnc4c(-c5ccccc5)c(-c5ccncc5)oc4c3)cc2)CC1 [Preparative Example 223, 1-methyl-4-{4-[3-phenyl-2-(pyridin-4-yl)furo[3,2-b]pyridin-6-yl]phenyl}piperazine]
0.209 | 0.832 | c1ccc(-c2ccccc2-c2coc3cc(-c4ccc(N5CCNCC5)cc4)cnc23)cc1 [Preparative Example 161, 3-([1,1′-biphenyl]-2-yl)-6-(4-(piperazin-1-yl)phenyl)furo[3,2-b]pyridine]
